{
  "source": "patent US20260130846A1",
  "about": "“ORAL PRODUCT” (NICOVENTURES TRADING LIMITED, priority 2022, published 2026)",
  "origin": "cited, not measured here",
  "key": {"[1]": {"details": "humans"}, "[2]": {"details": "mammals"}},
  "data": [
    {"smiles": "CCNC(=O)CC[C@H](N)C(=O)O", "note": "[Theanine, L-γ-glutamylethylamide]", "values": [
      {"measurement": "Absorption; plasma levels after oral consumption", "setting": "[1]", "value": "rapidly absorbed, with plasma levels rising in a linear dose-related manner"},
      {"measurement": "Time for which brain levels continue to increase after consumption", "setting": "[2]", "value": 4, "unit": "h"}
    ]}
  ]
}
